row,melting point [°C],SMILES
1,159 to 160,NC(=O)CNC(=O)c1ccc(F)c(-c2cccc3cc(Cc4cc(F)cc(Cl)c4)sc23)c1
2,166 to 168,CCn1ccc(OC2c3cc(C#N)ccc3OC(C)(C)C2(C)O)cc1=O (centres undefined)
3,135 to 137,CC(C)Cc1ccc2ccc(=O)[nH]c2n1
4,145,CCN(CC)C(=O)c1cc2ccc(Cl)cc2c(-c2ccccc2Cl)n1
5,212,CC1(N)CCN(C2=Nc3c(nc(Cl)nc3Nc3ccc(F)c(Cl)c3)CN2)CC1
6,221 to 240,COc1ccc(C(=O)Nc2ccc(F)cc2)cc1NS(=O)(=O)c1cccc([N+](=O)[O-])c1
7,201 to 204,COc1cccc2c(=O)n(C)c(-c3ccc(OC4CCN(C5CCC5)CC4)cc3)nc12
8,197 to 198,COc1ccc(-c2ccc(C#N)cn2)cc1C=O
9,152 to 154,COc1cc(-c2ccc(Cl)s2)cc2oc(=O)c(C)c(C)c12
10,154 to 155,N#Cc1ccc(N2C(=O)N(CCCCCN3C(=O)N(c4ccc(C#N)c(C(F)(F)F)c4)C(=O)C34CC4)C3(CC3)C2=O)cc1C(F)(F)F
11,138 to 140,CC(C)(C)c1cc(P(c2ccccc2)c2cc(C(C)(C)C)c(O)c(C(C)(C)C)c2)cc(C(C)(C)C)c1O
12,168,CNC(=O)C(C)CCn1c(COc2ccc(Cl)cc2)nc2c(C)cccc21 (centres undefined)
13,112 to 116,CC/C(CO)=C(/c1ccccc1)c1ccc(O)cc1
14,94 to 96,CO[C@@H]1C(S(=O)(=O)c2ccccc2)=C[C@H](C)[C@@H](O[Si](C)(C)C(C)(C)C)[C@@H](C)[C@@H]1O[Si](C)(C)C(C)(C)C
15,173 to 176,O=c1nc(NO)ccn1C1OC(CO)C(O)C1O (centres undefined)
16,120 to 162,CNC(=O)N1CCC(C(c2ccc(F)cc2)N(Cc2ccc(F)cc2)C(=O)NC)CC1 (centres undefined)
17,71 to 73,c1ccc(COCCOc2ccc(OCc3ccccc3)cc2)cc1
18,166,C=C[C@@H]1O[C@](/C=C/C2CC2)(C(F)(F)F)c2cc(Cl)ccc2NC1=O (relative stereo)
19,78 to 80,O=c1[nH]c(=O)n(C2CC(OCc3ccccc3Cl)C(CO)O2)cc1F (centres undefined)
20,206 to 207,CCCCC(=O)Nc1ccc(C(=O)Nc2ccc3cc(CN4CCCC4)cnc3c2C)cc1
21,> 250,CCCCC[C@H]1CC[C@H](c2ccc(-c3nc(N)nc(N)n3)cc2)CC1
22,159 to 161,BrCc1cccc2c(-c3ccc(Br)cc3)onc12
23,119 to 122,NC(=O)[C@H]1[C@H](CS)N(Cc2ccccc2)C(=O)N1Cc1ccccc1
24,136 to 137,CCCCNC(=O)CCCCCCCSc1nc(-c2ccccc2)c(-c2ccccc2)[nH]1
25,180 to 185,Cn1c(-c2ccc3c(c2)C(C)(C)OC(=O)N3)ccc1[N+](=O)[O-]

row,melting point [°C],SMILES
1,87 to 90,Cc1cn(C(C)(C)C(=O)NCc2ccccc2)nc1-c1ccccc1
2,124 to 126,COc1cc(OC)nc(C(=O)c2nccc(-c3ccccc3)c2C(=O)OCc2ccccc2)n1
3,141 to 148,CN(Cc1cc2c(=O)c(C(=O)NCc3ccc(Cl)cc3)cn(C)c2o1)CC(CO)c1ccccc1 (centres undefined)
4,109 to 110,CCOC(=O)C(C#N)=Cc1ccc(OC)c(OC2CCCC2)c1
5,211 to 213,N#Cc1ccc(Cn2cncn2)cc1-c1ccc(O)cc1
6,84 to 85,CCc1c(OC)cc(C2CN(C)CCC2=O)cc1OC (centres undefined)
7,> 230,N#Cc1nc2cc3c(cc2[nH]1)OC(F)(Cl)C(F)(Cl)O3 (centres undefined)
8,168,Cc1ccc2c(c1)CSc1nnc(C)n1-2
9,144 to 146,O=C(NC1CCN(Cc2ccccc2)CC1)c1ccccc1OCc1ccnc2ccccc12
10,84 to 86,COc1ccc(CCN(C)C(=O)/C=C/c2cccnc2)cc1OC
11,135 to 137,CCCCc1nc(C(=O)C(C)(C)C)c(C#N)[nH]1
12,92 to 94,COc1cc(-n2ccc(C)n2)ccc1C(=O)N1Cc2cccn2Cc2ccccc21
13,123 to 126,Cc1nc(C)c(Cl)c(NCc2nccc(SCCCN3CCN(CC4CN(Cc5ccncc5)C(=O)O4)CC3)c2C)n1 (centres undefined)
14,112 to 117,OC1(c2cccn2Cc2ccccc2F)CCN(Cc2ccccc2)CC1
15,278 to 279,CON=C1CN(c2nc3c(cc2F)c(=O)c(C(=O)O)cn3C2CC2)CC12CN(C(=O)OC(C)(C)C)C2
16,47 to 49,C#CCN(C)Cc1ccc([N+](=O)[O-])cc1
17,83 to 87,Nc1sc2c(c1C(=O)c1cc3ccccc3o1)CCN(Cc1ccccc1)C2
18,261 to 262,Cc1cnc2c(c1)cc1c3c(cc([N+](=O)[O-])cc32)C(=O)OC1=O
19,127 to 129,CN(c1ccccc1)[C@@H]1C=Cc2ccccc2[C@H]1O
20,53,CN1C(=O)CN(CCC#N)C1=O
21,100 to 102,CCSC1=C(c2ccc(O)cc2)C(=O)c2ccc(O)cc21
22,86 to 87,CCCCCCCCCCCCCCCCCCN(C)S(=O)(=O)c1ccc(Cl)c([N+](=O)[O-])c1
23,270,COc1cccc2c1C(N)=NS2(=O)=O
24,144 to 147,CCCCCS(=O)(=O)NC(=O)/C=C/c1cc(OCC2(C)COC2)nn1Cc1ccc(C(F)(F)F)cc1Cl

# More lines, now with the values behind:
row,SMILES,melting point [°C]
1,COc1ccc(OC)c2c1CCC(O)(CC(=O)O)C2 (centres undefined),112 to 114
2,CC(=C(c1ccc(N(C)C)cc1)c1ccc(N(C)C)cc1)P(c1ccccc1)c1ccccc1,95 to 97
3,COc1cc(F)ccc1-c1ccc(O)c(C(=O)O)c1,205 to 207
4,CC(=O)CN1C(=O)C(NC(=O)Nc2cccc(C)c2)N=C(C)c2cccc(C)c21 (centres undefined),126 to 128
5,CC(=O)Nc1ccc2c(c1)C(CN1CC=C(c3cn(C)c4cc(Cl)ccc34)CC1)CC2 (centres undefined),189 to 193
6,Cc1ccccc1C[C@H](C(=O)Nc1nc2ccccc2o1)c1ccc(S(C)(=O)=O)cc1,99 to 102
7,C1=C(CCc2ccco2)CCN(Cc2c[nH]c3ncccc23)C1,105
8,O=CC1=C(Cl)Nc2cc(F)c(F)cc2C1,260
9,Cn1cc(Br)nc(Nc2ccc3c(c2)CCNC3)c1=O,170 to 171
10,CC1(N)CN(c2c(F)c(N)c3c(=O)c(C(=O)O)cn(C4CC4)c3c2F)C1,243 to 247
11,CC1CCN(S(=O)(=O)c2cc(C#N)ccc2Oc2cc(Cl)ccc2Cl)CC1,127 to 130
12,Cc1nc2c(N)nc3ccccc3c2n1CCCCS(C)(=O)=O,206 to 209
13,CS(=O)(=O)c1ccc(-n2cccc2-c2ccc(Cl)cc2)cc1,203 to 205
14,CCOc1cc(Cn2[nH]c(N)cc2=O)ccc1Cl,143
15,Cc1cc(C=Cc2ccccc2OCC(O)C(N)C(C)C)on1 (centres undefined),106 to 108
16,CC=CCn1c(C)c(C)c2cnnc(SCc3ccc(Cl)cc3Cl)c21,81 to 85
17,CC(C)OC(=O)CCC1CCCCC1(c1ccc(O)c(C(C)(C)C)c1)c1ccc(O)c(C(C)(C)C)c1 (centres undefined),172
18,CC(C)(CCCCCCCCCCCC(C)(C)C(=O)O)C(=O)O,95 to 96
19,O=C1C[C@@H](O)C[C@H](/C=C/c2ccccc2)O1 (relative stereo),94 to 95
20,CC(=O)C1=C(C)NC(=O)N(C(C)=O)C1c1ccccc1 (centres undefined),181 to 183
21,CCC(=Cc1ccc(N(C)C)cc1Cl)[N+](=O)[O-],90 to 91
22,CC(C(=O)O)c1ccc2c(c1)C(c1ccccc1)=NCC(=O)N2 (centres undefined),252 to 255
23,COC(=O)CCCc1cc2nc(Cl)ccc2n1S(=O)(=O)c1ccccc1C(F)(F)F,127
24,Cc1ccc(S(=O)(=O)n2cc([C@@H]3C[C@H]3C=O)c3cc(C#N)ccc32)cc1 (relative stereo),165 to 167
25,CC(C)(C)c1c(O)[nH]c(=O)[nH]c1=O,247 to 248

row,SMILES,melting point [°C]
1,FC(F)c1ccc2c(c1)C(Cc1ccncc1)(Cc1ccncc1)c1ccccc1-2,> 300
2,O=C1COC(c2cccc(Cl)c2)c2ncccc21 (centres undefined),158 to 160
3,CC1(C)N(CC(N)=O)C(=O)CN1C(=O)CCl,214 to 216
4,COc1ccc(C2S(=O)(=O)CCCS2(=O)=O)cc1OC,243 to 245
5,Cc1oc(-c2ccccc2)nc1CCOc1ccc(CC2SC(=O)NC2=O)cn1 (centres undefined),191 to 192
6,CSc1ccc(-c2cc(-c3nc4ccccc4c(=O)n3-c3cccc(C)c3)sc2N2CCOCC2)cc1,220 to 221
7,COc1cc(F)c(CN(C=O)CCc2ccc(O)cc2)cc1O,153 to 168
8,O=C(O)c1cn(CC2CCCC2)c2cc(Cl)ccc12,181 to 184
9,COCCOc1c(F)c(Oc2ccc(S(C)(=O)=O)nc2)cc2cc(C3=NCC(CCO)S3)[nH]c12 (centres undefined),160 to 161
10,Cc1nc(-c2ccc(OC(C)C)c(C#N)c2)sc1C(=O)O,220 to 222
11,CCCn1cc(C(=O)c2cccc3ccccc23)cc1C(=O)O,145
12,CC(=O)OC1CCC2C3CCC4=CC(=O)CCC4(C)C3(Br)C(F)CC12C (centres undefined),172 to 174
13,COCCCNc1nc(Cl)cc(Cl)n1,48
14,O=C1CCCc2nc3cc(Cl)ccc3c(NCc3ccc(F)cc3)c21,156 to 158
15,CC(C)(C)OC(=O)N1CCN(c2ccc3[nH]c(S)nc3c2)CC1,219 to 220
16,CC(=O)c1ccc(C(C)(c2ccc(C(C)=O)cc2)c2ccc(C(C)=O)cc2)cc1,232
17,N#Cc1cccc(-n2c(=O)c(C(=O)Cc3ccccc3)c(O)c3cccnc32)c1,216 to 218
18,Cc1ccc(-c2ccc(N3CCCN(c4ccc(-c5ccc(C)cc5)cn4)CC3)nc2)cc1,245 to 247
19,COc1ccc(-c2ccc(C=NO)cc2)cc1OC1CCCC1,153
20,COc1ccc(C2CNCCc3c2cc(OC)c(OC)c3C)cc1 (centres undefined),100 to 111
21,CCOC(=O)C(CCc1ccc2c(c1)OCO2)(Cc1cc(OC)c(OC)c(OC)c1)C(=O)OCC,79.5 to 81
22,COc1ccc2c(c1)C(OC(C)C)=C(C(=O)O)S2=O (centres undefined),184 to 187
23,COc1cccc([C@]23CCN(C)C[C@@H]2CCC2(C3)OCCO2)c1 (relative stereo),124 to 126
24,Cc1cccc2c(N3CCSCC3)nc(Cl)cc12,134 to 136
25,Cn1nc(N)nc1NCCCO,139 to 140

# Source: a melting point compilation (Tetko et al.; mined from patent text by program, amines drawn as free bases though some values may be those of a salt)
